Experiments:
human M3 receptor = molecular target: T1, human M3 receptor (Homo sapiens, UniProt P20309); test: Human M3 receptor antagonist activity, [3H]NMS receptor binding
T1 construct: expressed in transfected cells; host or cells: CHO cells (membrane preparation)
Procedure: Measurement of the receptor binding ability was performed by using a transgenic human M3 receptor expression CHO cell membrane, 1-[N-methyl-^3H] scopolamine methyl bromide ([^3H]NMS, specific activity of 82 Cimmol). Protein concentration of the cell membrane was 2 μg per well, concentration of the [^3H]NMS was 1.0 nM.
Range of the antagonist concentration (10^−4 to 10^−11 M) was tested by creating a comparison curve. Unspecific binding was measured in the presence of 1 μM of atropine.
The reagent was adjusted to a total volume of 100 μL with a binding buffer (phosphate buffer/saline). The mixture was incubated at room temperature for 2 hours so as to reach equilibrium, and then the resultant mixture was transplanted to a GF/C filter plate that had been pretreated with a washing buffer containing 0.05% polyethyleneimine for 1 hour.
The bound [^3H]NMS and the free[^3H]NMS were separated by rapid vacuum filtration, and washed three times with a rinse buffer (50 mM of Tris, 100 mM of saline, and pH of 7.4). The obtained filter was dried, and then onto the dried filter, a solid scintillator, MeltiLex A (manufactured by PerkinElmer, Inc.) was fused, and the measurement and quantification were performed by using a β-counter (MicroBeta microplate scintillation counter (Trilux)).
The Ki value was calculated by the following equation.

[1] = test system: porcine pancreatic elastase-induced inflammation; test: Effect on porcine pancreatic elastase-induced inflammation (total cells in BALF); type: in vivo; conditions: single transairway dose 1 hour before porcine pancreatic elastase 100 μg/mouse; BALF 24 hours after elastase; ICR mice
Procedure: To 4 to 6-week old ICR mice, a test compound was administered once through the transairway. Porcine pancreatic elastase at 100 μg/mouse was administered 1 hour after the administration of the test compound. Bronchoalveolar lavage fluid (BALF) was collected from the lungs 24 hours after the administration of porcine pancreatic elastase, and the total number of cells was measured.

[2] = test system: methacholine-induced airway constriction; test: Effect on methacholine-induced airway constriction (airway resistance); type: in vivo; conditions: 47.9 μg/kg transairway, when exceeding 96 hours after the administration, ICR mice (FIG. 2)
Procedure: The increase of airway resistance by methacholine induction was measured. To 4 to 6-week old ICR mice, methacholine at 1 mg/mL was administered 5 times by spraying the methacholine for 20 seconds. After completion of the methacholine administration, the airway resistance was measured by a snap shot technique. All of the data were analyzed by using FlexiVent software.
The test compound at 47.9 μg/kg was administered to the mice through the transairway. The mice were exposed 5 times to nebulized methacholine 1 hour, 96 hours, and 120 hours after the administration, and the airway resistance at each time was measured.

T1 sequence (P20309 whole entry): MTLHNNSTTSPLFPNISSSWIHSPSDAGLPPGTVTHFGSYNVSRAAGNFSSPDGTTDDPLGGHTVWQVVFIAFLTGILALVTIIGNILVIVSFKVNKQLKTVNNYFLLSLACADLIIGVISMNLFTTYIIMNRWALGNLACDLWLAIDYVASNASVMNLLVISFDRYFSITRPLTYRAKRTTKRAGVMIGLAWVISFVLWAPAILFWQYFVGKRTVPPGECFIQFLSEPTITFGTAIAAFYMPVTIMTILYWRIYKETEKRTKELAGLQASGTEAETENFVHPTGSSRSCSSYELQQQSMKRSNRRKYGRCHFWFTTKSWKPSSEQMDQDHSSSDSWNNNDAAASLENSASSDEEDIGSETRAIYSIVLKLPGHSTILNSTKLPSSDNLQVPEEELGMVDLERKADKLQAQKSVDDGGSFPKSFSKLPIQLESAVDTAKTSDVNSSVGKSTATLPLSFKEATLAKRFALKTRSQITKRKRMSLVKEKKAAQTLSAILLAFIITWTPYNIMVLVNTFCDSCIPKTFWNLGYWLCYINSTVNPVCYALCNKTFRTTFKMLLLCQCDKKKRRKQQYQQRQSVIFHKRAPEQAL

| SMILES | Ki (human M3 receptor) [nM] | total number of cells in BALF [1] | airway resistance after methacholine [2] |
| --- | --- | --- | --- |
| O=C(OC1C[N+]2(CCOc3ccccc3F)CCC1CC2)C(O)(c1ccccc1)c1ccccc1 (centres unmarked) [Compound 1-4] | 0.114 |  |  |
| O=C(OC1C[N+]2(CCOc3ccccc3Cl)CCC1CC2)C(O)(c1ccccc1)c1ccccc1 (centres unmarked) [Compound 1-5] | 2.39 |  |  |
| O=C(OC1C[N+]2(CCOc3ccccc3Br)CCC1CC2)C(O)(c1ccccc1)c1ccccc1 (centres unmarked) [Compound 1-6] | 0.458 |  |  |
| O=C(O[C@H]1C[N+]2(CCCc3ccccc3)CCC1CC2)C(O)(c1ccccc1)c1ccccc1 [Compound 1-18] |  | reduced in a dose-dependent manner |  |
| O=C(O[C@@H]1C[N+]2(CCCc3ccccc3)CCC1CC2)C(O)(c1ccccc1)c1ccccc1 [Compound 1-19] |  | reduced in a dose-dependent manner |  |
| O=C(OC1C[N+]2(CCCc3ccccc3)CCC1CC2)C(O)(c1ccccc1)c1ccccc1 (centres unmarked) [Compound 1-20] |  | reduced in a dose-dependent manner |  |
| O=C(OC1C[N+]2(CCCOc3ccc(F)cc3)CCC1CC2)C(O)(c1ccccc1)c1ccccc1 (centres unmarked) [Compound 1-29] | 0.19 |  |  |
| O=C(OC1C[N+]2(CCCOc3ccc(Cl)cc3)CCC1CC2)C(O)(c1ccccc1)c1ccccc1 (centres unmarked) [Compound 1-30] | 0.084 |  |  |
| O=C(OC1C[N+]2(CCCOc3ccc(Br)cc3)CCC1CC2)C(O)(c1ccccc1)c1ccccc1 (centres unmarked) [Compound 1-31] | 0.32 |  |  |
| O=C(OC1C[N+]2(CCCOc3ccc(I)cc3)CCC1CC2)C(O)(c1ccccc1)c1ccccc1 (centres unmarked) [Compound 1-32] | 0.22 |  |  |
| Cc1ccc(OCCC[N+]23CCC(CC2)C(OC(=O)C(O)(c2ccccc2)c2ccccc2)C3)cc1 (centres unmarked) [Compound 1-33] | 0.058 |  |  |
| O=C(OC1C[N+]2(CCCOc3ccc(C(F)(F)F)cc3)CCC1CC2)C(O)(c1ccccc1)c1ccccc1 (centres unmarked) [Compound 1-34] | 2.7 |  |  |
| COc1ccc(OCCC[N+]23CCC(CC2)C(OC(=O)C(O)(c2ccccc2)c2ccccc2)C3)cc1 (centres unmarked) [Compound 1-35] | 5.89 |  |  |
| O=C(OC1C[N+]2(CCCOc3ccc(OC(F)(F)F)cc3)CCC1CC2)C(O)(c1ccccc1)c1ccccc1 (centres unmarked) [Compound 1-36] | 0.39 |  |  |
| O=C(OC1C[N+]2(CCOCc3ccccc3)CCC1CC2)C(O)(c1ccccc1)c1ccccc1 (centres unmarked) [Compound 1-41] | 0.12 |  |  |
| O=C(O[C@H]1C[N+]2(CCCOc3ccccc3)CCC1CC2)C(O)(c1cccs1)c1cccs1 [aclidinium, reference compound] |  | did not show any beneficial anti-inflammatory effects | did not reduce the airway resistance |

From patent US10155755B2, “Quinuclidine derivative” (LTT BIO-PHARMA CO., LTD., priority 2015, dated 2018)
